Assay: molar heat capacity at constant pressure
Details: 101.33 kPa, DSC

O=[N+]([O-])[O-].O=[N+]([O-])[O-].[Ca+2] [calcium nitrate]
Details | molar heat capacity at constant pressure [J/K/mol]
140.18 K, Crystal 2 | 107.65
141.18 K, Crystal 2 | 107.79
142.18 K, Crystal 2 | 107.93
143.18 K, Crystal 2 | 108.08
144.18 K, Crystal 2 | 108.26
145.18 K, Crystal 2 | 108.53
146.18 K, Crystal 2 | 108.77
147.18 K, Crystal 2 | 109.04
148.18 K, Crystal 2 | 109.41
149.18 K, Crystal 2 | 109.53
150.18 K, Crystal 2 | 109.66
151.18 K, Crystal 2 | 110.04
152.18 K, Crystal 2 | 110.2
153.18 K, Crystal 2 | 110.55
154.18 K, Crystal 2 | 110.68
155.18 K, Crystal 2 | 111.12
156.18 K, Crystal 2 | 111.45
157.18 K, Crystal 2 | 111.69
158.18 K, Crystal 2 | 111.99
159.18 K, Crystal 2 | 112.21
160.18 K, Crystal 2 | 112.56
161.18 K, Crystal 2 | 112.86
162.18 K, Crystal 2 | 113.24
163.18 K, Crystal 2 | 113.35
164.18 K, Crystal 2 | 113.45
165.18 K, Crystal 2 | 113.94
166.18 K, Crystal 2 | 114.12
167.18 K, Crystal 2 | 114.45
168.18 K, Crystal 2 | 114.73
169.18 K, Crystal 2 | 114.98
170.18 K, Crystal 2 | 115.36
171.18 K, Crystal 2 | 115.66
172.18 K, Crystal 2 | 116.1
173.18 K, Crystal 2 | 116.37
174.18 K, Crystal 2 | 116.66
175.18 K, Crystal 2 | 117.01
176.18 K, Crystal 2 | 117.33
177.18 K, Crystal 2 | 117.64
178.18 K, Crystal 2 | 117.92
179.18 K, Crystal 2 | 118.12
180.18 K, Crystal 2 | 118.62
181.18 K, Crystal 2 | 118.7
182.18 K, Crystal 2 | 119.16
183.18 K, Crystal 2 | 119.36
184.18 K, Crystal 2 | 119.66
185.18 K, Crystal 2 | 119.91
186.18 K, Crystal 2 | 120.23
187.18 K, Crystal 2 | 120.54
188.18 K, Crystal 2 | 120.8
189.18 K, Crystal 2 | 121.2
190.18 K, Crystal 2 | 121.32
191.18 K, Crystal 2 | 121.79
192.18 K, Crystal 2 | 122.02
193.18 K, Crystal 2 | 122.2
194.18 K, Crystal 2 | 122.58
195.18 K, Crystal 2 | 122.7
196.18 K, Crystal 2 | 123.1
197.18 K, Crystal 2 | 123.28
198.18 K, Crystal 2 | 123.48
199.18 K, Crystal 2 | 123.86
200.18 K, Crystal 2 | 123.94
201.18 K, Crystal 2 | 124.39
202.18 K, Crystal 2 | 124.62
203.18 K, Crystal 2 | 124.88
204.18 K, Crystal 2 | 125.24
205.18 K, Crystal 2 | 125.55
206.18 K, Crystal 2 | 125.8
207.18 K, Crystal 2 | 126.11
208.18 K, Crystal 2 | 126.43
209.18 K, Crystal 2 | 126.73
210.18 K, Crystal 2 | 126.95
211.18 K, Crystal 2 | 127.36
212.18 K, Crystal 2 | 127.6
213.18 K, Crystal 2 | 127.82
214.18 K, Crystal 2 | 128.19
215.18 K, Crystal 2 | 128.55
216.18 K, Crystal 2 | 128.82
217.18 K, Crystal 2 | 129.14
218.18 K, Crystal 2 | 129.41
219.18 K, Crystal 2 | 129.69
220.18 K, Crystal 2 | 129.91
221.18 K, Crystal 2 | 130.24
222.18 K, Crystal 2 | 130.55
223.18 K, Crystal 2 | 130.83
224.18 K, Crystal 2 | 131.03
225.18 K, Crystal 2 | 131.19
226.18 K, Crystal 2 | 131.52
227.18 K, Crystal 2 | 131.78
228.18 K, Crystal 2 | 132.06
229.18 K, Crystal 2 | 132.35
230.18 K, Crystal 2 | 132.6
231.18 K, Crystal 2 | 132.91
232.18 K, Crystal 2 | 133.16
233.18 K, Crystal 2 | 133.4
234.18 K, Crystal 2 | 133.66
235.18 K, Crystal 2 | 134.04
236.18 K, Crystal 2 | 134.28
237.18 K, Crystal 2 | 134.56
238.18 K, Crystal 2 | 134.67
239.18 K, Crystal 2 | 134.73
240.18 K, Crystal 2 | 134.88
241.18 K, Crystal 2 | 134.93
242.18 K, Crystal 2 | 135.27
243.18 K, Crystal 2 | 135.75
244.18 K, Crystal 2 | 136.33
245.18 K, Crystal 2 | 136.84
246.18 K, Crystal 2 | 137.21
247.18 K, Crystal 2 | 137.52
248.18 K, Crystal 2 | 137.79
249.18 K, Crystal 2 | 138.02
250.18 K, Crystal 2 | 138.35
251.18 K, Crystal 2 | 138.62
252.18 K, Crystal 2 | 138.99
253.18 K, Crystal 2 | 139.21
254.18 K, Crystal 2 | 139.61
255.18 K, Crystal 2 | 139.92
256.18 K, Crystal 2 | 140.17
257.18 K, Crystal 2 | 140.52
258.18 K, Crystal 2 | 140.74
259.18 K, Crystal 2 | 140.96
260.18 K, Crystal 2 | 141.24
261.18 K, Crystal 2 | 141.46
262.18 K, Crystal 2 | 141.71
263.18 K, Crystal 2 | 141.92
264.18 K, Crystal 2 | 142.15
265.18 K, Crystal 2 | 142.33
266.18 K, Crystal 2 | 142.65
267.18 K, Crystal 2 | 142.87
268.18 K, Crystal 2 | 143.14
269.18 K, Crystal 2 | 143.48
270.18 K, Crystal 2 | 143.75
271.18 K, Crystal 2 | 144.11
272.18 K, Crystal 2 | 144.39
273.18 K, Crystal 2 | 144.69
274.18 K, Crystal 2 | 145.05
275.18 K, Crystal 2 | 145.33
276.18 K, Crystal 2 | 145.65
277.18 K, Crystal 2 | 145.91
278.18 K, Crystal 2 | 146.15
279.18 K, Crystal 2 | 146.49
280.18 K, Crystal 2 | 146.74
281.18 K, Crystal 2 | 147.05
282.18 K, Crystal 2 | 147.32
283.18 K, Crystal 2 | 147.62
284.18 K, Crystal 2 | 148.05
285.18 K, Crystal 2 | 148.47
286.18 K, Crystal 2 | 149.01
287.18 K, Crystal 2 | 149.55
288.18 K, Crystal 2 | 150.15
289.18 K, Crystal 2 | 150.77
290.18 K, Crystal 1 | 151.37
291.18 K, Crystal 1 | 151.12
292.18 K, Crystal 1 | 150.21
293.18 K, Crystal 1 | 149.35
294.18 K, Crystal 1 | 148.69
295.18 K, Crystal 1 | 148.17
296.18 K, Crystal 1 | 147.88
297.18 K, Crystal 1 | 147.79
298.18 K, Crystal 1 | 147.74
299.18 K, Crystal 1 | 147.76
300.18 K, Crystal 1 | 147.88
301.18 K, Crystal 1 | 148.08
302.18 K, Crystal 1 | 148.34
303.18 K, Crystal 1 | 148.7
304.18 K, Crystal 1 | 149.02
305.18 K, Crystal 1 | 149.46
306.18 K, Crystal 1 | 149.88
307.18 K, Crystal 1 | 150.3
308.18 K, Crystal 1 | 150.74
309.18 K, Crystal 1 | 151.11
310.18 K, Crystal 1 | 151.52
311.18 K, Crystal 1 | 151.89
312.18 K, Crystal 1 | 152.28
313.18 K, Crystal 1 | 152.66
314.18 K, Crystal 1 | 153.07
315.18 K, Crystal 1 | 153.52
316.18 K, Crystal 1 | 153.88
317.18 K, Crystal 1 | 154.27
318.18 K, Crystal 1 | 154.64
319.18 K, Crystal 1 | 154.97
320.18 K, Crystal 1 | 155.32
321.18 K, Crystal 1 | 155.55
322.18 K, Crystal 1 | 155.81
323.18 K, Crystal 1 | 155.97
324.18 K, Crystal 1 | 156.09
325.18 K, Crystal 1 | 156.21
326.18 K, Crystal 1 | 156.25
327.18 K, Crystal 1 | 156.31
328.18 K, Crystal 1 | 156.31
328.78 K, Crystal 1 | 142.63
329.18 K, Crystal 1 | 156.34
329.78 K, Crystal 1 | 143.76
330.18 K, Crystal 1 | 156.4
330.78 K, Crystal 1 | 144.52
331.18 K, Crystal 1 | 156.44
331.78 K, Crystal 1 | 145.04
332.18 K, Crystal 1 | 156.55
332.78 K, Crystal 1 | 145.41
333.18 K, Crystal 1 | 156.64
333.78 K, Crystal 1 | 145.78
334.18 K, Crystal 1 | 156.71
334.78 K, Crystal 1 | 146.14
335.18 K, Crystal 1 | 156.85
335.78 K, Crystal 1 | 146.49
336.18 K, Crystal 1 | 156.94
336.78 K, Crystal 1 | 146.84
337.18 K, Crystal 1 | 157.08
337.78 K, Crystal 1 | 147.18
338.18 K, Crystal 1 | 157.1
338.78 K, Crystal 1 | 147.5
339.18 K, Crystal 1 | 157.13
339.78 K, Crystal 1 | 147.78
340.18 K, Crystal 1 | 157.13
340.78 K, Crystal 1 | 148.04
341.18 K, Crystal 1 | 157.22
341.78 K, Crystal 1 | 148.31
342.18 K, Crystal 1 | 157.26
342.78 K, Crystal 1 | 148.58
343.18 K, Crystal 1 | 157.38
343.78 K, Crystal 1 | 148.83
344.18 K, Crystal 1 | 157.49
344.78 K, Crystal 1 | 149.08
345.18 K, Crystal 1 | 157.55
345.78 K, Crystal 1 | 149.33
346.18 K, Crystal 1 | 157.7
346.78 K, Crystal 1 | 149.56
347.18 K, Crystal 1 | 157.84
347.78 K, Crystal 1 | 149.77
348.18 K, Crystal 1 | 158
348.78 K, Crystal 1 | 149.98
349.18 K, Crystal 1 | 158.16
349.78 K, Crystal 1 | 150.2
350.18 K, Crystal 1 | 158.3
350.78 K, Crystal 1 | 150.42
351.18 K, Crystal 1 | 158.39
351.78 K, Crystal 1 | 150.66
352.18 K, Crystal 1 | 158.48
352.78 K, Crystal 1 | 150.89
353.18 K, Crystal 1 | 158.58
353.78 K, Crystal 1 | 151.12
354.18 K, Crystal 1 | 158.8
354.78 K, Crystal 1 | 151.32
355.18 K, Crystal 1 | 158.94
355.78 K, Crystal 1 | 151.51
356.18 K, Crystal 1 | 159.08
356.78 K, Crystal 1 | 151.68
357.18 K, Crystal 1 | 159.2
357.78 K, Crystal 1 | 151.85
358.18 K, Crystal 1 | 159.38
358.78 K, Crystal 1 | 152.01
359.18 K, Crystal 1 | 159.61
359.78 K, Crystal 1 | 152.18
360.18 K, Crystal 1 | 159.81
360.78 K, Crystal 1 | 152.37
361.18 K, Crystal 1 | 160.09
